This is an account of results in patent US20050113397A1, “Imidazo[1,2-a]pyridine derivative” (priority 2002, published 2005).

≈ marks a conversion by molar mass, not a printed value.

Holding throughout (experiment): Antifungal activity (MIC), US NCCLS Standard Method M27-A, yeasts
Common to all, as to assay type: cell-based

In one assay the test system is Saccharomyces cerevisiae. The settings on record: for MIC: read-out: MIC (minimal inhibitory concentration for growth). As for the experimental part: (§1) The antifungal activity of the compound of the invention was determined according to the US NCCLS Standard Method (M27-A, 1997) against yeasts (Candida, Cryptococcus); and according to the US NCCLS Standard Method (M38-P, 1998) against molds (Aspergillus). The result is expressed in values of MIC (minimal inhibitory concentration for growth, μg/ml) in Table 7.

The next assay deals with Candida glabrata. The settings on record: for MIC: Nakaseomyces glabratus, read-out: MIC (minimal inhibitory concentration for growth). As for the experimental part: as §1
Another assay relates to Candida krusei. The settings on record: for MIC: Pichia kudriavzevii, read-out: MIC (minimal inhibitory concentration for growth). As for the experimental part: as §1

With `CCc1c(C)c(C#N)c2nc3ccccc3n2c1NCCN(CC)CC` [Example 1, 1-(2-N′,N′-Diethylaminoethylamino)-2-ethyl-3-methylpyrido[1,2-a]benzimidazole-4-carbonitrile], the “MIC (minimal inhibitory concentration for growth)” value amounted to 16 µg/mL against Saccharomyces cerevisiae, 2 µg/mL against Candida glabrata and 8 µg/mL in the assay with Candida krusei.

Consider `Cc1c(-c2ccccc2)c(N2CC[C@H](N(C)C)C2)n2c(nc3ccccc32)c1C#N.O=CO` [Example 6], for which the “MIC (minimal inhibitory concentration for growth)” value in the assay with Saccharomyces cerevisiae was less than 0.063 µg/mL; against Candida glabrata, less than 0.063 µg/mL; with Candida krusei it was 0.5 µg/mL.

For `CCCCCCc1c(C)c(C#N)c2nc3ccccc3n2c1N1CC(CN(C)C)C1` [Example 11, 2-n-Hexyl-1-[3-(dimethylaminomethyl)azetidin-1-yl]-3-methylpyrido[1,2-a]benzimidazole-4-carbonitrile], the results for the MIC in the assay on Saccharomyces cerevisiae, in the assay on Candida glabrata and with Candida krusei were 2 µg/mL (≈ 4.96 µM), 16 µg/mL (≈ 39.6 µM) and 32 µg/mL (≈ 79.3 µM), respectively.

For the molecule `CCCCCCc1c(C)c(C#N)c2nc3ccccc3n2c1N1CCCN(C)CC1` [Example 12, 2-n-Hexyl-1-(4-methylhomopiperazin-1-yl)-3-methylpyrido[1,2-a]benzimidazole-4-carbonitrile], the MIC in the assay with Saccharomyces cerevisiae was more than 32 µg/mL; in the assay on Candida glabrata, 128 µg/mL (≈ 317 µM); with Candida krusei, more than 128 µg/mL.

Take `Cc1c(Cc2cccc(N)c2)c(N2CC[C@H](N(C)C)C2)n2c(nc3ccccc32)c1C#N` [Example 60, 2-(3-Aminobenzyl)-1-[(3S)-dimethylaminopyrrolidinyl]-3-methylpyrido[1,2-a]benzimidazole-4-carbonitrile]: the “MIC (minimal inhibitory concentration for growth)” value is 64 µg/mL against Saccharomyces cerevisiae, 16 µg/mL against Candida glabrata and more than 128 µg/mL in the assay with Candida krusei.

Take `Cc1c(CCO)c(N2CC[C@H](N(C)C)C2)n2c(nc3ccccc32)c1C#N` [Example 66, 1-[(3S)-dimethylaminopyrrolidin-1-yl]-2-(2-hydroxyethyl)-3-methylpyrido[1,2-a]benzimidazole-4-carbonitrile]: the “MIC (minimal inhibitory concentration for growth)” value is 16 µg/mL against Saccharomyces cerevisiae, 32 µg/mL in the assay with Candida glabrata and 16 µg/mL with Candida krusei.

As for `Cc1c(C(C)C)c(N2CC[C@H](N(C)C)C2)n2c(nc3ccccc32)c1C#N` [Example 87, 2-Isopropyl-1-[(3S)-dimethylaminopyrrolidin-1-yl]-3-methylpyrido[1,2-a]benzimidazole-4-carbonitrile], the “MIC (minimal inhibitory concentration for growth)” value against Saccharomyces cerevisiae was determined as 2 µg/mL; in the assay on Candida glabrata, 1 µg/mL; with Candida krusei it was 8 µg/mL.

As for `CCc1c(C)c(C#N)c2nc3ccccc3n2c1C1=CC(N)CC1` (stereo not drawn) [Example 95, 1-(3-Amino-1-cyclopenten-1-yl)-2-ethyl-3-methylpyrido[1,2-a]benzimidazole-4-carbonitrile], the values for the MIC in the assay with Saccharomyces cerevisiae, with Candida glabrata and in the assay with Candida krusei were 16 µg/mL (≈ 50.6 µM), 32 µg/mL (≈ 101 µM) and 64 µg/mL (≈ 202 µM), respectively.
